Source: paper PMC7674337, “Phylogenetic analysis of plant multi-domain SEC14-like phosphatidylinositol transfer proteins and structure–function properties of PATELLIN2” (Plant Molecular Biology, 2020)

Target: T1, PATL2 (PATELLIN2; StrepII-PATL2) (Arabidopsis thaliana, UniProt Q56ZI2)
T1 construct: full-length CDS from Col-0 root cDNA; StrepII-tagged (pET-52b(+)), E. coli BL21(DE3) pLysS; Strep-Tactin purified
T1 sequence (Q56ZI2 2-683): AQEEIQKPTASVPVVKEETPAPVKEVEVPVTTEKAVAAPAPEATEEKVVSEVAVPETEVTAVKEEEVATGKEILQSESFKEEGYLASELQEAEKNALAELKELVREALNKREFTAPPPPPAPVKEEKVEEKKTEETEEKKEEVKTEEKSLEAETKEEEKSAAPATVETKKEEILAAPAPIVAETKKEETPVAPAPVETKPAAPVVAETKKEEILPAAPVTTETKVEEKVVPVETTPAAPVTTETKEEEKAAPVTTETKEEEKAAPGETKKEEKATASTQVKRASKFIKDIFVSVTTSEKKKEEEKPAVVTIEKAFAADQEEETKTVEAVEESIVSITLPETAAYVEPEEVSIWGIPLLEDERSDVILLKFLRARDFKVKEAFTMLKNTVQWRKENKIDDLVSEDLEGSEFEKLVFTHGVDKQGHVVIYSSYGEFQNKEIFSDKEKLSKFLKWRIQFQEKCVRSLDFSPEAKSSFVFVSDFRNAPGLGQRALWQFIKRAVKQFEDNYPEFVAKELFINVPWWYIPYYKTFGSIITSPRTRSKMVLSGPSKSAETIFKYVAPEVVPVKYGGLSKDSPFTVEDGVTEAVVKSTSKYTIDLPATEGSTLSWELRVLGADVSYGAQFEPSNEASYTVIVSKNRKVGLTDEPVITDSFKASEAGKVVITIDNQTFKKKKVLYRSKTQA
Assay: liposome co-sedimentation, immunoblot
Assay type: binding
Conditions: PC/PE liposomes with 7% phosphoinositide; 25 mM Tris-HCl pH 7.5, room temperature

Question: Which “liposome co-sedimentation, immunoblot” value does the source give for `CCCCCCCC/C=C\CCCCCCCC(=O)OC[C@H](COP(=O)(O)O[C@@H]1[C@H](O)[C@H](O)[C@@H](O)[C@H](O)[C@H]1O)OC(=O)CCCCCCC/C=C\CCCCCCCC` [PI, 1,2-dioleoyl-sn-glycero-3-phospho-(1′-myo-inositol)] here?
Answer: a low amount of PATL2 protein was found in the liposome membrane fraction
